Values of other authors in article PMC5364125 (EJNMMI Research, 2017).

What was measured:
[1] = test system: TSPO; conditions: human subjects; cited from earlier work
[2] = test system: TSPO; conditions: cited from earlier work

For CCN(CC)C(=O)Cc1c(-c2ccc(O[11CH3])cc2)nn2c(C)cc(C)nc12 [[^11C]DPA-713], the “V T caudate” value [1] is given as 3.1 ± 0.6, the “V T cerebellum” value [1] is given as 3.9 ± 0.9 and the “V T frontal cortex” value [1] is given as 4.1 ± 0.8. For the same compound, the “V T parietal cortex” value [1] was 3.7 ± 0.7, the “V T putamen” value [1] was 3.5 ± 0.6 and the “V T thalamus” value [1] was 4.7 ± 0.9.
In the case of CCN(CC)C(=O)Cc1c(-c2ccc(OCCF)cc2)nn2c(C)cc(C)nc12 [DPA-714], the “relative TSPO binding affinity to (R)-PK11195” value [2] is listed as 1.3 fold.
For CC[C@@H](C)N([11CH3])C(=O)c1cc2ccccc2c(-c2ccccc2Cl)n1 [(R)-[^11C]PK11195], the “V T caudate” value [1] is listed as 0.3 ± 0.1, the “V T cerebellum” value [1] is listed as 0.3 ± 0.1 and the “V T frontal cortex” value [1] is listed as 0.3 ± 0.1. For the same compound, the “V T parietal cortex” value [1] was 0.4 ± 0.1, the “V T putamen” value [1] was 0.3 ± 0.1 and the “V T thalamus” value [1] was 0.4 ± 0.1.
For COc1ccccc1CN(C(C)=O)c1cnccc1Oc1ccccc1 [PBR28], the “relative TSPO binding affinity to (R)-PK11195” value [2] is listed as 2–5 folds.
